Consider 59 compounds from patent US20250228835A1, “PYRIDINYLOXYPYRIDINES AND RELATED COMPOUNDS AND THEIR USE IN TREATING MEDICAL CONDITIONS” (Rectify Pharmaceuticals, Inc., priority 2024, published 2025).

This test has as its target T1, ABCD2 WT (Homo sapiens, UniProt Q9UBJ2).
T1 construct: expressed in transfected cells
T1 sequence (Q9UBJ2 1-740): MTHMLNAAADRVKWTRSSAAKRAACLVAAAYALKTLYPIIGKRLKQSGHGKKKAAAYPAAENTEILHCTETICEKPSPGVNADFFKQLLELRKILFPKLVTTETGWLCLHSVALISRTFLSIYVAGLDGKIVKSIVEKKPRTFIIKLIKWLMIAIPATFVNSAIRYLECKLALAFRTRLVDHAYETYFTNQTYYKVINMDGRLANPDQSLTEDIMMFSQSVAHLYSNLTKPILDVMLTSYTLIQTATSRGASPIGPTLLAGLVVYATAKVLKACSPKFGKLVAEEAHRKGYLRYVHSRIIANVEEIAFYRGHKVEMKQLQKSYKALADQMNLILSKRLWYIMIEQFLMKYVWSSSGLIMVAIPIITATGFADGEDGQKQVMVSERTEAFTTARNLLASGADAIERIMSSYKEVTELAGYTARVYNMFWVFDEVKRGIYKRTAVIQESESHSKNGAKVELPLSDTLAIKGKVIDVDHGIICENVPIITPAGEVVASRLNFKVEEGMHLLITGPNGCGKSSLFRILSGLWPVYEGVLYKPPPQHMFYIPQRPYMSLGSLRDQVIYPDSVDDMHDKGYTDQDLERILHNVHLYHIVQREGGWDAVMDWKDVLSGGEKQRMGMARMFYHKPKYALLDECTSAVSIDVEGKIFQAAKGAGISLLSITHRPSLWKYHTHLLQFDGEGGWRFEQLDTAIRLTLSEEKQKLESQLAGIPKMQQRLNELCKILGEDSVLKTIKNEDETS
Nature of the test: D2 correction dose-response assay: ABCD2 WT HiBit protein expression. The test is classed as cell-based. The settings on record: HEK-293/ABCD2 WT cells, 24 hours treatment, HiBit luminescence; class combines EC50 and Mean MaxAct (fold); read-out: ABCD2 WT EC50, Emax. An outline of the steps: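 HEK-293 cells stably expressing HiBit-tagged human ABCD2 WT were treated with 11 doses (3-fold dilutions, top final 30 μM, 0.3% DMSO) for 24 h at 37 °C. Expression was measured by HiBit lytic luminescence after 1 h at 25 °C, giving EC50 and Emax.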

Regarding `Cc1cc(C)c(Oc2nc(-n3cc(C)cn3)ccc2NS(C)(=O)=O)c(C)c1` [Compound I-11], the EC50 fell in the range of 1 to 10 µM.
With `Cc1cc(C)c(Oc2nc(-n3cnc(C)c3)ccc2NS(C)(=O)=O)c(C)c1` [Compound I-12], the EC50 was less than 1 µM.
As for `Cc1cc(C)c(Oc2nc(-c3cnn(C)c3C)ccc2NS(C)(=O)=O)c(C)c1` [Compound I-13], the figure is greater than 25 µM; as for `Cc1cc(C)c(Oc2nc(-c3cnn(C)c3)ccc2NS(C)(=O)=O)c(C)c1` [Compound I-14], 1 to 10 µM; as for `Cc1cc(C)c(Oc2nc(N3CCN(C(=O)C4(C)CC4)CC3)ccc2NS(C)(=O)=O)c(C)c1` [Compound I-15], greater than 25 µM.
As for `COC(=O)N1CCN(c2ccc(NS(C)(=O)=O)c(Oc3c(C)cc(C)cc3C)n2)CC1` [Compound I-16], the figure is 10 to 25 µM; as for `CC(=O)N1CCN(c2ccc(NS(C)(=O)=O)c(Oc3c(C)cc(C)cc3C)n2)CC1` [Compound I-17], 1 to 10 µM; as for `Cc1nc(Oc2nc(-c3cncc(C#N)c3)ccc2NS(C)(=O)=O)c(C)s1` [Compound I-107], less than 1 µM.
Take `Cc1cc(Oc2nc(-c3cncc(C#N)c3)ccc2NS(C)(=O)=O)nn1C` [Compound I-113]: the EC50 is less than 25 µM.
Consider `Cc1nn(C)c(C)c1Oc1nc(-c2cncc(C#N)c2)ccc1NS(C)(=O)=O` [Compound I-115], for which the EC50 was less than 1 µM.
The value for `Cc1cc(C)c(Oc2nc(-c3cncc(S(C)(=N)=O)c3)ccc2NS(C)(=O)=O)c(C)n1` (centres unmarked) [Compound I-116] was greater than 25 µM; that for `Cc1nc(C2CC2)c(Cl)cc1Oc1nc(-c2cncc(C#N)c2)ccc1NS(C)(=O)=O` [Compound I-120] was 1 to 10 µM.
The value for `Cc1cc(Oc2nc(-c3cncc(C#N)c3)ccc2NS(C)(=O)=O)c(C)nc1C1CC1` [Compound I-127] was greater than 25 µM; that for `Cc1cc(OC(F)(F)F)nc(C)c1Oc1nc(-c2cncc(C#N)c2)ccc1NS(C)(=O)=O` [Compound I-131] was less than 1 µM; that for `Cc1cc(OC2CC2)nc(C)c1Oc1nc(-c2cncc(C#N)c2)ccc1NS(C)(=O)=O` [Compound I-132] was less than 1 µM.
The value for `Cc1nc(C)c(Oc2nc(-c3cncc(C#N)c3)ccc2NS(C)(=O)=O)c(C2CC2)n1` [Compound I-165] was 1 to 10 µM; that for `Cc1cc(C)c(Oc2nc(-c3cncc(C#N)c3)ccc2N(C)S(C)(=O)=O)c(C)n1` [Compound I-166] was 1 to 10 µM; that for `CNS(=O)(=O)c1ccc(-c2cncc(C#N)c2)nc1Oc1c(C)nc(C(F)(F)F)nc1C` [Compound I-167] was 1 to 10 µM.
Turning to `CNS(=O)(=O)c1ccc(-c2cncc(C#N)c2)nc1Oc1c(C)cc(C(F)(F)F)nc1C` [Compound I-168], the EC50 was 1 to 10 µM.
As for `Cc1nc(N2CC(S(C)(=O)=O)C2)nc(C)c1Oc1nc(-c2cncc(C#N)c2)ccc1NS(C)(=O)=O` [Compound I-169], the figure is 10 to 25 µM; as for `Cc1nc(N2CC(F)(F)C2)nc(C)c1Oc1nc(-c2cncc(C#N)c2)ccc1NS(C)(=O)=O` [Compound I-170], 1 to 10 µM.
As for `Cc1cc(C2CC2)c(Oc2nc(-c3cncc(C#N)c3)ccc2NS(C)(=O)=O)c(C)n1` [Compound I-171], the figure is less than 1 µM; as for `Cc1cc(C)c(Oc2nc(-c3cncc(C#N)c3)ccc2NS(=O)(=O)C2(C)CC2)c(C)n1` [Compound I-172], greater than 25 µM.
As for `Cc1nc(C(F)F)nc(C)c1Oc1nc(-c2cncc(C#N)c2)ccc1NS(C)(=O)=O` [Compound I-173], the figure is less than 1 µM; as for `Cc1nc(C2COC2)nc(C)c1Oc1nc(-c2cncc(C#N)c2)ccc1NS(C)(=O)=O` [Compound I-174], 1 to 10 µM.
As to `Cc1nc(C(F)F)nc(C)c1Oc1nc(-c2cncc(Cl)c2)ccc1NS(C)(=O)=O` [Compound I-175], the EC50 is greater than 25 µM.
As for `Cc1cc(C)c(Oc2nc(-c3cncc(C#N)c3)ccc2NS(C)(=O)=O)c(OC2CC2)n1` [Compound I-176], the EC50 was less than 1 µM.
As for `Cc1cc(N2CCC2)nc(C)c1Oc1nc(-c2cncc(C#N)c2)ccc1NS(C)(=O)=O` [Compound I-177], the EC50 is greater than 25 µM.
Take `Cc1nc(OC2CC2)c(C(F)(F)F)cc1Oc1nc(-c2cncc(C#N)c2)ccc1NS(C)(=O)=O` [Compound I-178]: the EC50 lay within 1 to 10 µM.
The value for `Cc1nc(C2CC2)c(C(F)F)cc1Oc1nc(-c2cncc(C#N)c2)ccc1NS(C)(=O)=O` [Compound I-179] was less than 1 µM; that for `Cc1cc(N2CC(F)(F)C2)nc(C)c1Oc1nc(-c2cncc(C#N)c2)ccc1NS(C)(=O)=O` [Compound I-180] was greater than 25 µM; that for `Cc1nc(C2CCC2)nc(C)c1Oc1nc(-c2cncc(C#N)c2)ccc1NS(C)(=O)=O` [Compound I-181] was greater than 25 µM.
As for `Cc1cc(Oc2nc(-c3cncc(C#N)c3)ccc2NS(C)(=O)=O)c(C)nc1C(F)(F)F` [Compound I-182], the figure is less than 1 µM; as for `Cc1nc(C2CC2)nc(C)c1Oc1nc(-c2cncc(C#N)c2)ccc1NS(C)(=O)=O` [Compound I-183], less than 1 µM.
The value for `Cc1nc(C2CC2)c(C(F)(F)F)cc1Oc1nc(-c2cncc(C#N)c2)ccc1NS(C)(=O)=O` [Compound I-184] was less than 1 µM; that for `Cc1cc(C)c(Oc2nc(-c3cncc(N4CC(F)C4)c3)ccc2NS(C)(=O)=O)c(C)n1` [Compound I-185] was less than 1 µM; that for `Cc1cc(C)c(Oc2nc(-c3ccn(C)c(=O)c3)ccc2NS(C)(=O)=O)c(C)n1` [Compound I-186] was greater than 25 µM.
Take `Cc1cc(C)c(Oc2nc(-c3cc[nH]c(=O)c3)ccc2NS(C)(=O)=O)c(C)n1` [Compound I-187]: the EC50 is greater than 25 µM.
Regarding `COc1cc(-c2ccc(NS(C)(=O)=O)c(Oc3c(C)cc(C)nc3C)n2)ccn1` [Compound I-188], the EC50 lay within 1 to 10 µM.
Consider `Cc1cc(C)c(Oc2nc(-c3cncc(N4CCC4)c3)ccc2NS(C)(=O)=O)c(C)n1` [Compound I-190], for which the EC50 was less than 1 µM.
As to `Cc1nc(C)c(Oc2nc(-c3cncc(C(F)F)c3)ccc2NS(C)(=O)=O)c(C)n1` [Compound I-191], the half-maximal effective concentration (EC50) is 10 to 25 µM.
For `Cc1nc(C)c(Oc2nc(-c3cncc(C(F)(F)F)c3)ccc2NS(C)(=O)=O)c(C)n1` [Compound I-192], the EC50 was greater than 25 µM.
The value for `Cc1nc(C)c(Oc2nc(-c3cncc(C4CC4)c3)ccc2NS(C)(=O)=O)c(C)n1` [Compound I-193] was less than 1 µM; that for `Cc1cc(C)c(Oc2nc(-c3cncc(C4CN(C)C4)c3)ccc2NS(C)(=O)=O)c(C)n1` [Compound I-194] was greater than 25 µM; that for `Cc1cc(C)c(Oc2nc(-c3cncc(N4CC(F)(F)C4)c3)ccc2NS(C)(=O)=O)c(C)n1` [Compound I-195] was greater than 25 µM.
The value for `COC1CN(c2cncc(-c3ccc(NS(C)(=O)=O)c(Oc4c(C)cc(C)nc4C)n3)c2)C1` [Compound I-196] was less than 1 µM.
On to `Cc1cc(C(F)F)nc(C)c1Oc1nc(-c2cncc(C3COC3)c2)ccc1NS(C)(=O)=O` [Compound I-197], for which the EC50 is 1 to 10 µM.
The value for `Cc1cc(C(F)(F)F)nc(C)c1Oc1nc(-c2cncc(C3COC3)c2)ccc1NS(C)(=O)=O` [Compound I-198] was greater than 25 µM.
As for `Cc1cc(C(F)F)nc(C)c1Oc1nc(-c2cncc(C#N)c2)ccc1NS(=O)(=O)C1CC1` [Compound I-199], the figure is 1 to 10 µM; as for `Cc1nc(C(F)(F)F)nc(C)c1Oc1nc(-c2cncc(C#N)c2)ccc1NS(C)(=O)=O` [Compound I-200], less than 1 µM.
The value for `Cc1cc(C)c(Oc2nc(-c3cncc(N4CCOCC4)c3)ccc2NS(C)(=O)=O)c(C)n1` [Compound I-201] was 1 to 10 µM; that for `Cc1cc(C(F)F)nc(C)c1Oc1nc(-c2cncc(Cl)c2)ccc1NS(C)(=O)=O` [Compound I-202] was greater than 25 µM; that for `Cc1cc(C(F)F)nc(C)c1Oc1nc(-c2ccnc(C#N)c2)ccc1NS(=O)(=O)C1CC1` [Compound I-203] was less than 1 µM.
Turning to `Cc1cc(C(F)F)nc(C)c1Oc1nc(-c2ccnc(C#N)c2)ccc1NS(C)(=O)=O` [Compound I-204], the EC50 was less than 1 µM.
As for `Cc1nc(C(F)(F)F)nc(C)c1Oc1nc(-c2cncc(Cl)c2)ccc1NS(C)(=O)=O` [Compound I-205], the figure is less than 1 µM.
The value for `COC(=O)c1cncc(-c2ccc(NS(C)(=O)=O)c(Oc3cc(C)n(C)n3)n2)c1` [Compound I-206] was greater than 25 µM; that for `Cc1cc(C2CCC2)nc(C)c1Oc1nc(-c2cncc(C#N)c2)ccc1NS(C)(=O)=O` [Compound I-208] was greater than 25 µM; that for `COc1nc(C)cc(C)c1Oc1nc(-c2cncc(C#N)c2)ccc1NS(C)(=O)=O` [Compound I-209] was less than 1 µM.
The value for `Cc1cc(C)c(Oc2nc(-c3ccnc(C#N)c3)ccc2NS(=O)(=O)C2CC2)c(C)n1` [Compound I-211] was less than 1 µM.
